Consider two compounds from patent US7820651B2, “Preparation of antimicrobial formulations using 7-oxa-2-thia-1,5-diazabicyclo[3.3.1]nonane-2,2-dione” (priority 2006, dated 2010).

Series [1] is described as follows: Exploratory experiments for dissolving in water (solubility). It counts as physicochemical. The note with it: in 100 ml of water at room temperature.
The subject of a further series is C. albicans (ATCC 10231). Description: Fungicidal activity according to DIN EN 1275 (membrane filtration), microbial count reduction. It counts as cell-based. The note with it: 20°±1° C., pH 6.3. As for the experimental part: (§1) With regard to a possible use as lock solution, a solution was prepared, for testing for antimicrobial activity, by dissolving 0.85 g of cyclotaurolidine and 4.8 g of monosodium citrate in water (100 ml) with stirring, a clear colorless solution being obtained. After the pH of the solution had been adjusted to 6.3, the solution was filtered and filled into ampoules. The bactericidal and fungicidal activity of the solution was tested by a recognized test laboratory according to DIN EN 1040 and DIN EN 1275 (membrane filtration) against the test organisms S. aureus (ATCC 6538), P. aeruginosa (ATCC 15442), S. epidermis (ATCC 12288), C. albicans (ATCC 10231) and A. niger (ATCC 16404). The microbial count reductions observed for an action time of the test solution of 60 min and of 24 h at a test temperature of 20°±1° C. were determined. The results are given in log steps of the microbial count reduction, minimum reductions of ≧5.0 log steps being required with respect to the test microorganisms S. aureus, P. aeruginosa and S. epidermis and log steps of ≧4.0 for C. albicans and A. niger, based on DIN EN 1040 and DIN EN 1275.

The subject of the next series is A. niger (ATCC 16404). The series is described as above. It is filed as cell-based. The note with it: 20°±1° C., pH 6.3. As for the experimental part:
as §1

The format of series [2] is physicochemical. The source says: In contrast to taurolidin, cyclotaurolidine can therefore also be processed to give formulations in organic vehicles, for example in many customary organic vehicle materials for pharmaceutical and cosmetic purposes. This permits, for example, advantageous use in ointments and gels and on plastic surfaces (in the surface layers of stents), for example in agents for disinfecting the skin surface or as a fungicide, for example for the feet.

The next series deals with S. aureus (ATCC 6538). Description: Bactericidal activity according to DIN EN 1040 (membrane filtration), microbial count reduction. The note with it: 20°±1° C., pH 6.3. It counts as cell-based. As for the experimental part:
as §1

Series [3] concerns S. epidermis (ATCC 12288). The series is described as above. The note with it: 20°±1° C., pH 6.3. It counts as cell-based. Here is the method: as §1
Series [4] has as its system P. aeruginosa (ATCC 15442). Described as above. The note with it: 20°±1° C., pH 6.3. It counts as cell-based. As for the experimental part:
as §1

Where [5] appears, read: action time 60 min, 0.85 g cyclotaurolidine and 4.8 g monosodium citrate in 100 ml water.
[6] abbreviates: action time 24 h, 0.85 g cyclotaurolidine and 4.8 g monosodium citrate in 100 ml water.
[7] abbreviates: action time 60 min, comparative aqueous solution, 2% by weight of taurolidin with citrate.
[8] abbreviates: action time 24 h, comparative aqueous solution, 2% by weight of taurolidin with citrate.

As to `O=S1(=O)CCN2COCN1C2` [cyclotaurolidine, 7-oxa-2-thia-1,5-diazabicyclo[3.3.1]nonane-2,2-dione], the solubility in series [1] was ≤ 13 mg/mL. The microbial count reduction is on record as > 4.26 log steps in the series on C. albicans (ATCC 10231) (setting [5]); > 4.26 log steps in the series with C. albicans (ATCC 10231) (setting [6]); > 4.08 log steps with A. niger (ATCC 16404) (setting [5]); > 4.08 log steps in the series on A. niger (ATCC 16404) (setting [6]); 2.04 log steps in the series on S. aureus (ATCC 6538) (setting [5]); > 5.25 log steps in the series on S. aureus (ATCC 6538) (setting [6]). For the same compound, the microbial count reduction was 1.22 log steps in series [3] (setting [5]), > 5.29 log steps in series [3] (setting [6]), > 5.27 log steps in series [4] (setting [5]) and > 5.27 log steps in series [4] (setting [6]). Further, the “solubility in organic solvents” value in series [2] was “soluble in various organic solvents”. The “stability in the air” value in series [2] is given as “stable in the air at customary temperatures”.

`O=S1(=O)CCN(CN2CCS(=O)(=O)NC2)CN1` [taurolidin, reference compound]: the microbial count reduction is given as 0 log steps in the series with C. albicans (ATCC 10231) (setting [7]); 3.70 log steps in the series with C. albicans (ATCC 10231) (setting [8]); 1.18 log steps in the series with A. niger (ATCC 16404) (setting [7]); ≥ 4.08 log steps with A. niger (ATCC 16404) (setting [8]); 1.33 log steps in the series on S. aureus (ATCC 6538) (setting [7]); ≥ 5.25 log steps in the series on S. aureus (ATCC 6538) (setting [8]). For the same compound, the microbial count reduction is reported as > 0.99 log steps in series [3] (setting [7]), ≥ 5.29 log steps in series [3] (setting [8]), > 5.27 log steps in series [4] (setting [7]) and ≥ 5.27 log steps in series [4] (setting [8]).
